From patent US9732075B2, “Benzimidazole-proline derivatives” (IDORSIA PHARMACEUTICALS LTD, priority 2012, dated 2017)

How the values were obtained:
human orexin-2 receptor = human orexin-2 receptor (Homo sapiens (Human), UniProt O43614); experiment: In vitro assay: intracellular calcium measurements (FLIPR), antagonistic activity; assay type: cell-based; conditions: CHO cells expressing human orexin-2 receptor, orexin-A agonist, geometric mean, read-out: IC50 Ox2
Summary of the method: (§1)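 IC50s are geometric means, possibly reference-normalized, from FLIPR calcium peaks in CHO cells bearing human orexin-1 or orexin-2 receptor. Fluo-4 AM/probenecid-loaded cells received antagonist for 120 min before challenge with orexin-A (final 3 nM, ~EC70), with responses compared against vehicle controls.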

human orexin-1 receptor = human orexin-1 receptor (Homo sapiens (Human), UniProt O43613); experiment: as above; assay type: cell-based; conditions: CHO cells expressing human orexin-1 receptor, orexin-A agonist, geometric mean, read-out: IC50 Ox1
Summary of the method: as §1

Sequence of human orexin-2 receptor (O43614 whole entry): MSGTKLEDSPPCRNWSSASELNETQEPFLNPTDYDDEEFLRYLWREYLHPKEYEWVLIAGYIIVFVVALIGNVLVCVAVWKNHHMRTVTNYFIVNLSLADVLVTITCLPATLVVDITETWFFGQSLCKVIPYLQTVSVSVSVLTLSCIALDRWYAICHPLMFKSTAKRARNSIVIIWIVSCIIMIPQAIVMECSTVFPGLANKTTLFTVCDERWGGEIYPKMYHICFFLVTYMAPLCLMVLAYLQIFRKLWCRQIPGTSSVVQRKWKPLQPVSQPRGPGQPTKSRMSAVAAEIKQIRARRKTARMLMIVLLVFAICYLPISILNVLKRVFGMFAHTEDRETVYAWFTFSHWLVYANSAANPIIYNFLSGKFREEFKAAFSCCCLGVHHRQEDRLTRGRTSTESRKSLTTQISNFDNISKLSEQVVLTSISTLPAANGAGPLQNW
Sequence of human orexin-1 receptor (O43613 whole entry): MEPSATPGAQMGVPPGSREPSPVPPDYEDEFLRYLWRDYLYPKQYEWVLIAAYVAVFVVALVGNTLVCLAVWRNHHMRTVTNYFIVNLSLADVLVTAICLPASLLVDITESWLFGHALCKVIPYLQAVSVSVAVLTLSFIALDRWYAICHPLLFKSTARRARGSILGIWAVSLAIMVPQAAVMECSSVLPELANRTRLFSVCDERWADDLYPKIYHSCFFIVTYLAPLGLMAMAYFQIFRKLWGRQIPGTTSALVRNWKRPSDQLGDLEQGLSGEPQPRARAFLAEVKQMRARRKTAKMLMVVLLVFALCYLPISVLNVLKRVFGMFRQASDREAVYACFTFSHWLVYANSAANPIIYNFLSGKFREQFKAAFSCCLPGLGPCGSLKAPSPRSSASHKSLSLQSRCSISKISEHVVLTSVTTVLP

| Compound | IC50 (human orexin-2 receptor) [nM] | IC50 (human orexin-1 receptor) [nM] |
| --- | --- | --- |
| Cc1nc(C(=O)N2C[C@H](F)C[C@H]2c2nc3c(C)cccc3[nH]2)c(-c2cccc(Cl)c2)s1 [Ex. 2.9] | 18 | 17 |
| Cc1c(Cl)ccc2[nH]c([C@]3(C)CCCN3C(=O)c3cc(C(F)(F)F)ccc3-n3nccn3)nc12 [Ex. 5.40] | 91 | 44 |
| COc1cccc(C#Cc2ccccc2C(=O)N2CCC[C@@]2(C)c2nc3c(C)cc(Br)cc3[nH]2)c1 [Ex. 5.249] | 53 | 38 |
| C=C1C[C@@H](c2nc3ccc(OC)cc3[nH]2)N(C(=O)c2cc(OC)ccc2-n2nccn2)C1 [Ex. 6.140] | 10 | 667 |
| COc1ccc(-c2sc(C)nc2C(=O)N2CCC[C@@]2(C)c2nc3cc(OC)c(OC)cc3[nH]2)cn1 [Ex. 5.77] | 153 | 64 |
| COc1ccc(-c2ccc(C(F)(F)F)cc2)c(C(=O)N2CCC[C@@]2(C)c2nc3ccc(Cl)c(C)c3[nH]2)c1F [Ex. 5.305] | 41 | 35 |
| Cc1nc(C(=O)N2CCCC2c2nc3c4c(ccc3[nH]2)OCCO4)c(-c2cccc(Cl)c2)s1 (racemic) [Ex. 1.117] | 56 | 136 |
| COc1cccc(-c2nc(C)ncc2C(=O)N2CCC[C@H]2c2nc3ccc(SC)cc3[nH]2)c1 [Ex. 1.56] | 88 | 252 |
| Cc1ccc(-c2ccc(C)cc2C(=O)N2CCC[C@@]2(C)c2nc3cc(C)c(C)cc3n2CCF)cc1 [Ex. 7.40] | 39 | 23 |
| COc1ccccc1-c1sc(C)nc1C(=O)N1CC[C@H](C)[C@H]1c1nc2c(Cl)cccc2[nH]1 [Ex. 4.129] | 2750 | 35 |
| Cc1ccc(-c2cccc(OC(F)(F)F)c2)c(C(=O)N2CCC[C@@]2(C)c2nc3cc(C(F)(F)F)ccc3[nH]2)c1 [Ex. 5.184] | 413 | 300 |
| COc1ccc2nc([C@@H]3CCCN3C(=O)c3nc(C)sc3-c3cccc(F)c3)[nH]c2c1 [Ex. 1.21] | 149 | 1180 |
| Cc1ccc(-c2ncccn2)c(C(=O)N2CCC[C@@]2(C)c2nc3cc(F)c(Br)cc3[nH]2)c1 [Ex. 5.282] | 97 | 47 |
| C=C1C[C@@H](c2nc3cc(C(F)(F)F)c(Cl)cc3[nH]2)N(C(=O)c2nc(C)sc2-c2ccc(C)c(C)c2)C1 [Ex. 6.142] | 22 | 17 |
| Cc1ccc(-c2ncccn2)c(C(=O)N2CCC[C@@]2(C)c2nc3cc(C)c(C)cc3[nH]2)c1 [Ex. 5.284] | 18 | 10 |
| CO[C@H]1CN(C(=O)c2nc(C)ccc2-n2cccn2)C(C)(c2nc3c(C)c(Cl)ccc3[nH]2)C1 (some centres unmarked) [Ex. 3.55] | 45 | 18 |
| C=C1C[C@@H](c2nc3cc(Cl)c(C(F)(F)F)cc3[nH]2)N(C(=O)c2cc(C)ccc2-n2nccn2)C1 [Ex. 6.67] | 5 | 9 |
| Cc1ccc(-n2nccn2)c(C(=O)N2CCC[C@@]2(C)c2nc3c(C)c(Cl)ccc3[nH]2)n1 [Ex. 5.47] | 15 | 5 |
| Cc1ccc(-c2ccccc2C)c(C(=O)N2CCC[C@@]2(C)c2nc3cc(C(F)(F)F)ccc3[nH]2)c1 [Ex. 5.186] | 294 | 120 |
| COc1ccc2nc([C@@H]3CCCN3C(=O)c3nc(C)sc3-c3cccc(Cl)c3Cl)[nH]c2c1 [Ex. 1.19] | 76 | 660 |

| Compound | IC50 (human orexin-2 receptor) [nM] | IC50 (human orexin-1 receptor) [nM] |
| --- | --- | --- |
| COc1cccc(-c2ccc(C)cc2C(=O)N2CCC[C@@]2(C)c2nc3cc(C)c(C)cc3n2CC2CC2)c1 [Ex. 7.49] | 173 | 96 |
| Cc1ccc(-c2nc(C(=O)N3CCC[C@@]3(C)c3nc4c(C)c(Cl)ccc4[nH]3)c(-c3ccc(F)cc3)s2)cc1Cl [Ex. 5.258] | 6520 | 36 |
| C=C1CC(c2nc3cc(OC)ccc3[nH]2)N(C(=O)c2cc(C)sc2-c2ccc(C)c(C)c2)C1 (racemic) [Ex. 6.71] | 2 | 24 |
| Cc1nc(C(=O)N2CCC[C@@]2(C)c2nc3c(C)c(Cl)ccc3n2C)c(-c2cccc(Cl)c2)s1 [Ex. 7.33] | 3 | 1 |
| Cc1nc(C(=O)N2CCCC2c2nc3cc(C(F)(F)F)ccc3[nH]2)c(-c2ccccc2)s1 (centres unmarked) [Ex. 1.121] | 287 | 76 |
| CSc1ccc2nc([C@@H]3CCCN3C(=O)c3cnc(C)nc3-c3ccc(C)c(C)c3)[nH]c2c1 [Ex. 1.55] | 10 | 35 |
| CO[C@H]1CN(C(=O)c2cc(C(F)(F)F)ccc2-n2nccn2)C(C)(c2nc3c(C)c(Cl)ccc3[nH]2)C1 (some centres unmarked) [Ex. 3.50] | 252 | 232 |
| COc1cc2nc(C3CCCN3C(=O)c3nc(C)sc3-c3cccc(Cl)c3)[nH]c2cc1OC (centres unmarked) [Ex. 1.110] | 46 | 164 |
| Cc1ccc(C(=O)N2CC[C@H](C)[C@H]2c2nc3c(C)c(Cl)ccc3[nH]2)c(-c2ncccn2)c1 [Ex. 4.174] | 132 | 12 |
| Cc1ccc(-c2ncccn2)c(C(=O)N2CC[C@H](C)[C@H]2c2nc3c(C)c(Cl)ccc3[nH]2)c1F [Ex. 4.176] | 1070 | 15 |
| Cc1nc(C(=O)N2CCC[C@@]2(C)c2nc3cccc(C)c3[nH]2)c(-c2ccccc2)s1 [Example 5.1, (S)-(2-methyl-2-(7-methyl-1H-benzo[d]imidazol-2-yl)pyrrolidin-1-yl)(2-methyl-5-phenylthiazol-4-yl)methanone] | 13 | 26 |
| Cc1ccc(-n2nccn2)c(C(=O)N2CC[C@H](C)[C@H]2c2nc3c(Cl)cccc3[nH]2)c1 [Ex. 4.36] | 2740 | 70 |
| COc1ccc(-c2sc(C)nc2C(=O)N2CC[C@H](C)[C@H]2c2nc3cc(C(F)(F)F)ccc3[nH]2)cc1 [Ex. 4.141] | 2760 | 5 |
| Cc1nc(C(=O)N2CCC[C@@]2(C)c2nc3cc(OC(F)(F)F)ccc3[nH]2)c(-c2ccc(C)c(C)c2)s1 [Ex. 5.245] | 80 | 14 |
| CO[C@@H]1C[C@@H](c2nc3c(C)cccc3[nH]2)N(C(=O)c2nc(C)sc2-c2cccc(Cl)c2)C1 [Ex. 3.7] | 5 | 9 |
| Cc1ccc2[nH]c([C@]3(C)CCCN3C(=O)c3ccccc3-c3ccc(F)cc3)nc2c1C [Ex. 5.122] | 74 | 99 |
| Cc1nc(C(=O)N2CC[C@H](C)[C@H]2c2nc3c(Cl)cccc3[nH]2)c(-c2cc(F)cc(F)c2)s1 [Ex. 4.119] | 2050 | 21 |
| CSc1ccc2nc([C@@H]3CCCN3C(=O)c3nc(C)sc3-c3cccc(Cl)c3)[nH]c2c1 [Ex. 1.43] | 58 | 97 |
| Cc1nc(C(=O)N2CCC[C@@]2(C)c2nc3cc(OC(F)(F)F)ccc3[nH]2)c(-c2ccccc2C)s1 [Ex. 5.243] | 1120 | 88 |
| Cc1ccc(-c2ncccn2)c(C(=O)N2CC[C@H](C)[C@H]2c2nc3c(C)c(Cl)ccc3[nH]2)c1 [Ex. 4.178] | 350 | 7 |

| Compound | IC50 (human orexin-2 receptor) [nM] | IC50 (human orexin-1 receptor) [nM] |
| --- | --- | --- |
| Cc1c(Cl)ccc2[nH]c([C@]3(C)CCCN3C(=O)c3cc(F)ccc3-n3nccn3)nc12 [Ex. 5.45] | 12 | 5 |
| CO[C@H]1CN(C(=O)c2ccccc2-n2nccn2)C(C)(c2nc3c(C)c(Cl)ccc3[nH]2)C1 (some centres unmarked) [Ex. 3.45] | 19 | 16 |
| C=C1C[C@@H](c2nc3ccc(Cl)c(C)c3[nH]2)N(C(=O)c2nc(C)sc2-c2cc(C)cc(C)c2)C1 [Ex. 6.124] | 4 | 15 |
| CO[C@@H]1C[C@@H](c2nc3ccc(Cl)c(C)c3[nH]2)N(C(=O)c2nc(N(C)C)sc2-c2ccc(C)c(C)c2)C1 [Ex. 3.33] | 10 | 0.8 |
| CSc1cccc2nc([C@@H]3CCCN3C(=O)c3ccccc3-c3ccc(C)c(C)c3)[nH]c12 [Ex. 1.75] | 9 | 5 |
| Cc1c(Cl)ccc2[nH]c([C@]3(C)CCCN3C(=O)c3nc(-c4cccc(F)c4)sc3-c3ccc(F)cc3)nc12 [Ex. 5.234] | 131 | 8 |
| Cc1ccc(-n2nccn2)c(C(=O)N2CC[C@H](C)[C@H]2c2nc3c(C(C)C)cccc3[nH]2)c1 [Ex. 4.38] | 756 | 55 |
| Cc1nc(C(=O)N2CC[C@H](C)[C@H]2c2nc3c(C(F)(F)F)cccc3[nH]2)c(-c2ccc(Br)cc2)s1 [Ex. 4.151] | 185 | 5 |
| C[C@@]1(c2nc3cc(Cl)c(C(F)(F)F)cc3[nH]2)CCCN1C(=O)c1nc(-c2ccccc2)sc1-c1ccc(F)cc1 [Ex. 5.285] | 452 | 32 |
| C=C1C[C@@H](c2nc3cc(OC)ccc3[nH]2)N(C(=O)c2ccsc2-c2ccc(C)c(C)c2)C1 [Ex. 6.39] | 9 | 106 |
| CO[C@H]1CN(C(=O)c2nc(C)sc2-c2cccc(Cl)c2)C(C)(c2nc3c(C)cccc3[nH]2)C1 (some centres unmarked) [Ex. 3.28] | 19 | 10 |
| Cc1ccc(-c2ccc(F)cc2C)c(C(=O)N2CCC[C@@]2(C)c2nc3c(C)c(C)ccc3[nH]2)c1 [Ex. 5.108] | 161 | 265 |
| COc1cc2nc([C@]3(C)CCCN3C(=O)c3ccccc3-n3nccn3)[nH]c2cc1OC [Ex. 5.73] | 57 | 98 |
| Cc1cc(Cl)cc2[nH]c([C@@H]3[C@@H](C)CCN3C(=O)c3cc(Cl)ccc3-n3nccn3)nc12 [Ex. 4.91] | 183 | 17 |
| Cc1nc(C(=O)N2CC[C@H](C)[C@H]2c2nc3c(C(C)C)cccc3[nH]2)c(-c2cccc(Cl)c2)s1 [Ex. 4.25] | 441 | 4 |
| Cc1ccc(-n2cccn2)c(C(=O)N2CC[C@H](C)[C@H]2c2nc3c(C)c(Cl)ccc3[nH]2)c1 [Ex. 4.64] | 800 | 5 |
| C=C1C[C@@H](c2nc3ccccc3[nH]2)N(C(=O)c2nc(C)sc2-c2cccc(Cl)c2)C1 [Ex. 6.43] | 62 | 368 |
| COc1cccc2nc([C@@H]3CCCN3C(=O)c3cc(C)ccc3-n3nccn3)[nH]c12 [Ex. 1.4] | 30 | 241 |
